These results are taken from US4569943A, “Physiologically active substance P-23924, its production and use” (Takeda Chemical Industries, Ltd., priority 1982, dated 1986).

By inhibition is commonly meant the share of the control response that was lost under treatment. A low value points to little suppression. The term LD50 denotes the dose expected to kill half of the subjects tested. Higher therefore signals a less toxic substance.

pIC50: −log10 of the molar value.

Series [1] concerns the target T1, Protocollagen prolyl hydroxylase (Gallus gallus, UniProt P16924).
T1 construct: partially purified enzyme preparation derived from chick embryo; from tissue; host or cells: chick embryo (partially purified enzyme preparation)
T1 sequence (P16924 1-516): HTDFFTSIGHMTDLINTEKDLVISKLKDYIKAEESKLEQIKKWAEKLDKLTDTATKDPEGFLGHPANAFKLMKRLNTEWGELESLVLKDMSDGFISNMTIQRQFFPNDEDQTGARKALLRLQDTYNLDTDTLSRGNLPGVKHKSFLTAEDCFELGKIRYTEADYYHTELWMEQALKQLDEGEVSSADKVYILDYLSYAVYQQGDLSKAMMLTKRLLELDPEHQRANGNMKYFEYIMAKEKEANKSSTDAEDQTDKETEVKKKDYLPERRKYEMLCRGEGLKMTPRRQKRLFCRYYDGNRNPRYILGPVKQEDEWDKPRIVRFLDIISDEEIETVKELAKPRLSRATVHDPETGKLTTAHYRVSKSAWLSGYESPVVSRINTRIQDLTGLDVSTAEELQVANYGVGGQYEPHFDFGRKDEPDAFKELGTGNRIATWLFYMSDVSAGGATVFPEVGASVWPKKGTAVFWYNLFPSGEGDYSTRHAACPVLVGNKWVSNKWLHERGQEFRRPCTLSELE
T1 sequence (P09102 23-515 partner): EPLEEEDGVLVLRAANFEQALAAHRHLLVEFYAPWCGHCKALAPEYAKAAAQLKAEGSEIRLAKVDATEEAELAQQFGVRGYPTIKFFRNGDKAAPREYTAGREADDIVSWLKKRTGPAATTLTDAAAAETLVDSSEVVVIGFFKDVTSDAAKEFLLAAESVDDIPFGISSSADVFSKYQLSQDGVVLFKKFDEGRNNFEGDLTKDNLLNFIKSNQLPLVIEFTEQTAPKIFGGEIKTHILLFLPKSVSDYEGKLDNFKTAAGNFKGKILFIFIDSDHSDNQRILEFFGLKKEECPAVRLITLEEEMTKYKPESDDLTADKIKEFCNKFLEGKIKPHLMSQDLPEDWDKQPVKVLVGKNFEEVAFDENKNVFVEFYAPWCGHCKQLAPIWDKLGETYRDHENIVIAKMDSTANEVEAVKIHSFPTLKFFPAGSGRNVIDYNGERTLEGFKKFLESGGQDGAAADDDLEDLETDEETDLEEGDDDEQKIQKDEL
As to the kind of experiment: Protocollagen prolyl hydroxylase inhibiting activity (method of R. E. Rhoads, substrate (Pro-Pro-Gly)5.4H2O). Type of series: biochemical, chick embryo. As to conditions: for inhibition at 12.5 µM: 12.5 μM compound, 100 μg enzyme; for pIC50: 100 μg (as protein) of partially purified enzyme preparation from chick embryo, read-out: Concentration of P-23924 required for a 50% inhibition. How it is done: (a) Protocollagen prolyl hydroxylase inhibiting activity: This inhibitory activity was assayed by the method of R. E. Rhoads [Methods in Enzymology XVII B, 306 (1971)] using a partially purified enzyme preparation derived from chick embryo in accordance with the methods of K. I. Kivirriko et al and J. Halme et al. [Journal of Biological Chemistry 242, 4007 (1967) and Biochimica et Biophysica Acta 198, 460 (1967)] and, as the substrate, (Pro-Pro-Gly)5.4H2 O [manufactured by Tanpakushitsu Kenkyu Shoreikai (Protein Research Foundation Society), Osaka, Japan]. The concentrations of P-23924 required for a 50% inhibition of 100 μg (as protein) of said partially purified enzyme preparation were as follows.
On the other hand, by a similar procedure as above, the protocollagen prolyl hydroxylase inhibiting activities on the compounds of P-23924 AR, BR, CR and DR are measured.

Series [2] is described as follows: Solubility. Type of series: physicochemical.
Series [3] deals with T1, Protocollagen prolyl hydroxylase. Description: Protocollagen prolyl hydroxylase inhibiting activity (method of R. E. Rhoads, substrate (Pro-Pro-Gly)5.4H2O). Type of series: biochemical, chick embryo. Conditions: 3.13 μM compound, 20 μg enzyme.
Series [4] has as its system collagen biosynthesis (uterus). Description: Collagen biosynthesis suppressant activity in uterus of estradiol-17β treated rats (method of T. Ishimaru et al). Type of series: in vivo, SD rats. Conditions: for Body weight of rats / Collagen content of uterus / Total protein content of uterus: groups of 10; for % Inhibition: Non-collagenous protein: total protein content - collagen. The source says:
(b) Collagen biosynthesis suppressant activity: In accordance with the method of T. Ishimaru et al [Biochemical Pharmacology 31, 915 (1982)], P-23924 was intraperitoneally administered to SD rats (females, 3 weeks old) once daily for 6 consecutive days and the collagen content and non-collagenous protein content of the uterus were compared with those of control animals. […] I | said tests, rats were used in groups of 10 individuals.

The nature of series [5]: Acute toxicity [LD50] by the intraperitoneal route. As to conditions: rat, in vivo, ip, rats. The source says: The acute toxicity [LD50 ] values of P-23924 in rats by the intraperitoneal route are given below.
The nature of series [6]: Description (acidity, fat solubility). Type of series: physicochemical.
The mark [7] stands for this setting: in dimethylsulfoxide, pyridine, ethyl acetate, chloroform, dioxan.
Where [8] appears, read: 50 mg/kg i.p. once daily 6 days + Estradiol-17β (5 μg).
The mark [9] stands for this setting: in acetone, chloroform, n-hexane and petroleum ether.
The mark [10] stands for this setting: in dimethyl sulfoxide, dimethylformamide, pyridine and 5% aqueous sodium hydrogen carbonate.
Setting [11] is: in methanol, dioxane and acetic acid.
The mark [12] stands for this setting: 1 mg/kg i.p. once daily 6 days + Estradiol-17β (5 μg), P < 0.05 (B: P < 0.02, C: P < 0.01).
[13] abbreviates: 1 mg/kg i.p. once daily 6 days + Estradiol-17β (5 μg).
The mark [14] stands for this setting: in chloroform, n-hexane and petroleum ether.

`COC1=C(C)C(=O)c2c(cc(O)c(C)c2O)C1=O` [P-23924 DR] showed an inhibition at 12.5 µM in series [1] of 20%. The Solubility entry in series [2] (setting [7]) is reported as “readily or easily soluble”; in series [2] (in n-hexane, petroleum ether), “slightly soluble or insoluble”; in series [2] (in water), “slightly soluble or insoluble”. For the same compound, the inhibition at 3.13 µM in series [3] was 33%.

For `COC1=CC(=O)c2c(cc(OC)c(C)c2O)C1=O` [P-23924 CR], at 12.5 µM the inhibition in series [1] was 33%. Moreover, the Solubility entry in series [2] (setting [7]) was “readily or easily soluble”; in series [2] (in n-hexane, petroleum ether), “slightly soluble or insoluble”; in series [2] (in water) it was “slightly soluble or insoluble”. In series [3], this compound yielded an inhibition at 3.13 µM of 40%.

In the case of `COC1=C(C)C(=O)c2c(cc(O)c(CSCC(NC(C)=O)C(=O)O)c2O)C1=O` (stereo not shown) [P-23924D], in series [1], the pIC50 was 3.57. The “% Inhibition: Collagen” value in series [4] (50 mg/kg i.p. once daily 6 days + Estradiol-17β (5 μg), P < 0.05) is given as 32%. Also, in series [4] (setting [8]), the “Body weight of rats” value is given as 72 ± 3 g, the “Collagen content of uterus” value is on record as 2.55 ± 0.30 mg, the “Total protein content of uterus” value turned out to be 15.63 ± 1.43 mg and the “% Inhibition: Non-collagenous protein” value is 11%. Moreover, in series [5], the median lethal dose (LD50) is > 400 mg/kg. Moreover, in series [2] (setting [9]), the Solubility entry is recorded as “slightly soluble or insoluble”. Further, the Solubility result in series [2] (setting [10]) is “easily soluble”. The Solubility result in series [2] (setting [11]) is given as “soluble”. Also, the Solubility entry in series [2] (in water) is given as “slightly soluble or insoluble”. The Description result in series [6] is “acidic and fat-soluble”.

For the compound `COC1=C(C)C(=O)c2c(cc(OC)c(CSCC(NC(C)=O)C(=O)O)c2O)C1=O` (stereo not shown) [P-23924B], the pIC50 in series [1] was 4.02. Also, the “% Inhibition: Collagen” value in series [4] (setting [12]) is listed as 46%. In addition, in series [4] (setting [13]), the “Body weight of rats” value came out at 70 ± 5 g. In series [4] (setting [13]), the “Collagen content of uterus” value came out at 2.37 ± 0.43 mg. Besides, the “% Inhibition: Non-collagenous protein” value in series [4] (setting [13]) is reported as 19%. In series [5], this compound came in with an LD50 of 50 to 100 mg/kg. Also, the Solubility result in series [2] (setting [9]) is listed as “slightly soluble or insoluble”; in series [2] (setting [10]), “easily soluble”; in series [2] (setting [11]), “soluble”; in series [2] (in water) it was “slightly soluble or insoluble”. Also, the Description result in series [6] is “acidic and fat-soluble”.

For `COc1cc2c(c(O)c1CSCC(NC(C)=O)C(=O)O)C(=O)C(CO)=CC2=O` (stereo not shown) [P-23924E], the pIC50 in series [1] is 4.68. Besides, the “% Inhibition: Collagen” value in series [4] (setting [12]) came out at 34%. Also, in series [4] (setting [13]), the “Body weight of rats” value was 72 ± 4 g, the “Collagen content of uterus” value was 2.52 ± 0.36 mg, the “Total protein content of uterus” value worked out at 15.73 ± 1.59 mg and the “% Inhibition: Non-collagenous protein” value was 9%. Also, the LD50 in series [5] is ~50 mg/kg. In addition, in series [2] (setting [14]), the Solubility result was “slightly soluble or insoluble”. For the same compound, the Solubility result in series [2] (in dimethyl sulfoxide, dimethylformamide, pyridine, 5% aqueous sodium hydrogen carbonate and methanol) is “easily soluble”. For the same compound, the Solubility result in series [2] (in dioxane and acetic acid) is recorded as “soluble”. In series [2] (in water), the Solubility entry is on record as “slightly soluble or insoluble”. The Description result in series [6] is “acidic and fat-soluble”.

For `COC1=CC(=O)c2c(cc(OC)c(CSCC(NC(C)=O)C(=O)O)c2O)C1=O` (stereo not shown) [P-23924C], the pIC50 in series [1] is 4.24. Further, the “% Inhibition: Collagen” value in series [4] (setting [12]) is recorded as 61%. The “Body weight of rats” value in series [4] (setting [13]) came to 73 ± 6 g. For the same compound, the “Collagen content of uterus” value in series [4] (setting [13]) is 2.19 ± 0.49 mg. Also, the “Total protein content of uterus” value in series [4] (setting [13]) turned out to be 14.01 ± 1.51 mg. For the same compound, the “% Inhibition: Non-collagenous protein” value in series [4] (setting [13]) is reported as 30%. Moreover, the LD50 in series [5] was 100 to 200 mg/kg. For the same compound, the Solubility entry is “slightly soluble or insoluble” in series [2] (setting [14]); “easily soluble” in series [2] (setting [10]); “soluble” in series [2] (in methanol, dioxane, acetone and acetic acid); “slightly soluble or insoluble” in series [2] (in water). In addition, the Description result in series [6] is “acidic and fat-soluble”.

Regarding `COC1=C(C)C(=O)c2c(cc(OC)c(C)c2O)C1=O` [P-23924 BR], at 12.5 µM the inhibition in series [1] was 22%. Also, the Solubility result is given as “readily or easily soluble” in series [2] (setting [7]); “slightly soluble or insoluble” in series [2] (in n-hexane, petroleum ether); “slightly soluble or insoluble” in series [2] (in water). Further, testing at 3.13 µM in series [3] gave an inhibition of 26%.

Take `COc1cc2c(c(O)c1C)C(=O)C(C)=CC2=O` [P-23924 AR]: testing at 12.5 µM in series [1] gave an inhibition of 26%. Further, the Solubility result in series [2] (setting [7]) is listed as “readily or easily soluble”; in series [2] (in n-hexane, petroleum ether) it was “slightly soluble or insoluble”; in series [2] (in water) it was “slightly soluble or insoluble”. This compound gave an inhibition at 3.13 µM in series [3] of 37%.

On to `COC1=C(CO)C(=O)c2c(cc(OC)c(CSCC(NC(C)=O)C(=O)O)c2O)C1=O` (stereo not shown) [P-23924F], for which the pIC50 in series [1] is 4.68. Further, the “% Inhibition: Collagen” value in series [4] (setting [12]) came out at 38%. Besides, in series [4] (setting [13]), the “Body weight of rats” value is given as 71 ± 3 g, the “Collagen content of uterus” value is on record as 2.47 ± 0.57 mg, the “Total protein content of uterus” value is on record as 15.20 ± 1.53 mg and the “% Inhibition: Non-collagenous protein” value is recorded as 15%. The compound further showed an LD50 in series [5] of 50 to 100 mg/kg. Also, the Solubility result in series [2] (setting [9]) is reported as “slightly soluble or insoluble”. Moreover, the Solubility entry in series [2] (setting [10]) is reported as “easily soluble”. The Solubility result in series [2] (setting [11]) is given as “soluble”. In addition, the Solubility result in series [2] (in water) is “slightly soluble or insoluble”. Besides, the Description result in series [6] was “acidic and fat-soluble”.

With `COc1cc2c(c(O)c1CSCC(NC(C)=O)C(=O)O)C(=O)C(C)=CC2=O` (stereo not shown) [P-23924A], in series [1], the pIC50 was 4.17. Also, the “% Inhibition: Collagen” value in series [4] (setting [12]) came to 33%. Moreover, in series [4] (setting [13]), the “Body weight of rats” value is given as 73 ± 3 g, the “Collagen content of uterus” value is 2.53 ± 0.35 mg, the “Total protein content of uterus” value came out at 15.67 ± 1.63 mg and the “% Inhibition: Non-collagenous protein” value worked out at 10%. This compound also yielded an LD50 in series [5] of 100 to 200 mg/kg. Besides, in series [2] (setting [9]), the Solubility entry is given as “slightly soluble or insoluble”. For the same compound, the Solubility entry in series [2] (setting [10]) is given as “easily soluble”. Moreover, the Solubility entry in series [2] (setting [11]) is recorded as “soluble”. Besides, the Solubility entry in series [2] (in water) is recorded as “slightly soluble or insoluble”. Besides, the Description result in series [6] was “acidic and fat-soluble”.
